Source: patent US7449545B2, “Antimicrobial bolisin peptides” (IPF Pharmaceuticals GmbH, priority 2001, dated 2008)
Like-named read-outs stand apart in the source and are kept apart here. Ends that are not written are not given here.

Experiments:
Assay type in all cases: cell-based
[1] = test system: Pseudomonas aeruginosa ATCC 9027; conditions: complete growth inhibition not achieved
Source text: (§1) The bolisin analogues of the present invention were examined for their suitability as antibiotic therapeutical agents by means of various biological tests. Thus, the chemically synthesized peptides were examined for their antimicrobial effectiveness against three Gram-positive and three Gram-negative bacterial strains as well as against a yeast.
(§2) The following microorganisms were used: • Gram-positive: Staphylococcus aureus ATCC 25923 • Enterococcus faecalis ATCC 51299 (vancomycin-resistant) • Streptococcus pneumoniae DSM 11865 (penicillin-resistant) • Gram-negative: Escherichia coli ATCC 25922 • Pseudomonas aeruginosa ATCC 9027 • Klebsiella pneumoniae ATCC 10031 • Yeast: Candida albicans ATCC 10231
(§3) The antibiotic activity of bolisin analogues was examined by determining the minimum inhibition concentration. The minimum inhibition concentration of an analogue designates the lowest peptide concentration which is required to inhibit the growth of microorganisms completely after an incubation time of 18±2 h. This method allows to obtain a quantitative result about the antimicrobial potency of the peptides. These examinations were performed by analogy with the recommendations (M7-A3) edited by the NCCLS (National Committee for Clinical Laboratory Standards) by applying a dilution test in a liquid medium using chemically synthesized peptides (peptide sequences according to claims 1 to 3). Mueller Hinton Broth was used as the test medium according to the NCCLS recommendations unless indicated otherwise. […] The minimum inhibition concentrations are stated in [μg/ml].
(§4) A complete growth inhibition could not be achieved in this case. For determining the minimum inhibition concentration, the following microorganisms were used: • 1. Staphylococcus aureus ATCC 25923 • 2. Enterococcus faecalis ATCC 51299 (vancomycin-resistant) • 3. Streptococcus pneumoniae DSM 11865 (penicillin-resistant) • 4. Escherichia coli ATCC 25922 • 5. Pseudomonas aeruginosa ATCC 9027 • 6. Klebsiella pneumoniae ATCC 10031 • 7. Candida albicans ATCC 10231

[2] = test system: Enterococcus faecalis ATCC 51299 (vancomycin-resistant); conditions: ATCC 51299, 2 h
Source text: as §1, §2
as §3, with “The minimum inhibition concentration of an analogue designates the lowest peptide concentration which is required to inhibit the growth of microorganisms completely after an incubation time of 18±2 h.” left out
as §4

[3] = test system: Staphylococcus aureus ATCC 25923; conditions: ATCC 25923, 2 h
Source text: as §1, §2
as §3, with “The minimum inhibition concentration of an analogue designates the lowest peptide concentration which is required to inhibit the growth of microorganisms completely after an incubation time of 18±2 h.” left out
as §4

[4] = test system: Streptococcus pneumoniae DSM 11865 (penicillin-resistant); conditions: DSM 11865, 2 h
Source text: as §1, §2
as §3, with “The minimum inhibition concentration of an analogue designates the lowest peptide concentration which is required to inhibit the growth of microorganisms completely after an incubation time of 18±2 h.” left out
as §4

[5] = test system: Escherichia coli ATCC 25922; conditions: ATCC 25922, 2 h
Source text: as §1, §2
as §3, with “The minimum inhibition concentration of an analogue designates the lowest peptide concentration which is required to inhibit the growth of microorganisms completely after an incubation time of 18±2 h.” left out
as §4

[6] = test system: Klebsiella pneumoniae ATCC 10031; conditions: ATCC 10031, 2 h
Source text: as §1, §2
as §3, with “The minimum inhibition concentration of an analogue designates the lowest peptide concentration which is required to inhibit the growth of microorganisms completely after an incubation time of 18±2 h.” left out
as §4

[7] = test system: Candida albicans ATCC 10231; conditions: ATCC 10231, 2 h
Source text: as §1, §2
as §3, with “The minimum inhibition concentration of an analogue designates the lowest peptide concentration which is required to inhibit the growth of microorganisms completely after an incubation time of 18±2 h.” left out
as §4

[8] = half-concentrated Mueller Hinton Broth

Substance	peptide concentration giving 75% inhibition of growth (value in parentheses) [1, 8]	minimum inhibition concentration [2] [µg/mL]	minimum inhibition concentration [3] [µg/mL]	minimum inhibition concentration [4] [µg/mL]	minimum inhibition concentration [5] [µg/mL]	minimum inhibition concentration [6] [µg/mL]	peptide concentration giving 75% inhibition of growth (value in parentheses) ([1]; Mueller Hinton Broth)	minimum inhibition concentration [7] [µg/mL]
YIRYKRRSADKRRKALK-OH [BOL-16, YIRYKRRSADKRRKALK]	(300) μg/ml	>300	100	>300	75	150		
YIVYKIRSADKRWKALK-OH [BOL-30, YIVYKIRSADKRWKALK]	(300) μg/ml	>300	100	>300	150	300		
YIVYKIRFAFKRRKAL [BOL-92, YIVYKIRFAFKRRKAL]		18.75	18.75	25	18.75	12.5	(37.5) μg/ml	
YIVYKIRWAWKRSKALK-OH [BOL-47, YIVYKIRWAWKRSKALK]		25	18.75	18.75	18.75	9.375	(25) μg/ml	18.75
YIVYKRRSARKRRKALK-OH [BOL-15, YIVYKRRSARKRRKALK]	(150) μg/ml	>300	18.75	>300	18.75	75		
YIVWKIRSARKRRKALK-OH [BOL-74, YIVWKIRSARKRRKALK]		150	300	150	300	18.75	(12.5) μg/ml	75
YIVYKIRWARKRRK-OH [BOL-73, YIVYKIRWARKRRK]		25	37.5	18.75	50	18.75	(9.375) μg/ml	9.375
YIVYKIRSAPKRSKALK-OH [BOL-21, YIVYKIRSAPKRSKALK]	(150) μg/ml	>300	75	>300	150	200		
YIVYKIRSAWKRWK-OH [BOL-70, YIVYKIRSAWKRWK]		150	100	150	100	75	(100) μg/ml	37.5
YIVYKRRSADKRRKALK-OH [BOL-12, YIVYKRRSADKRRKALK]	(300) μg/ml	>300	18.75	>300	18.75	200		
YIVYKIRWTWKRSKAL [BOL-97, YIVYKIRWTWKRSKAL]		18.75	12.5	18.75	18.75	18.75	(37.5) μg/ml	
YIRYKIRSARKRRKALK-OH [BOL-14, YIRYKIRSARKRRKALK]	(150) μg/ml	>300	50	>300	37.5	75		
YIVYKIRSADKRRKALK-OH [BOL-7, YIVYKIRSADKRRKALK]	(75) μg/ml	>300	75	>300	150	300		
KLAKRRKWAWRIKYVIY [BOL-103, KLAKRRKWAWRIKYVIY]		37.5	18.75	37.5	18.75	18.75	(9.4) μg/ml	
YIVYKIRSARKRSKALK-OH [BOL-6, YIVYKIRSARKRSKALK]	(9.375) μg/ml	200	37.5	150	37.5	37.5		
YIVYKIRSARKRRKALK-OH [BOL-13, YIVYKIRSARKRRKALK]	(9.375) μg/ml	75	18.75	150	18.75	18.75		
YIVYKIRWADKRSKALK-OH [BOL-27, YIVYKIRWADKRSKALK]	(150) μg/ml	300	75	300	75	150		
YIVYKIRWAWKRSKAL [BOL-93, YIVYKIRWAWKRSKAL]		37.5	25	25	25	25	(37.5) μg/ml	
YIVYKRRSARKRSKALK-OH [BOL-11, YIVYKRRSARKRSKALK]	(150) μg/ml	>300	37.5	>300	37.5	150		
YIVYKIRFAFKRSKAL [BOL-91, YIVYKIRFAFKRSKAL]		37.5	25	37.5	25	18.75	(150) μg/ml	
YIVYKIRSAWKRSKALK-OH [BOL-29, YIVYKIRSAWKRSKALK]	(18.75) μg/ml	75	9.375	150	9.375	50		
YIVWKIRSADKRSKALK-OH [BOL-25, YIVWKIRSADKRSKALK]	(150) μg/ml	>300	150	>300	150	200		
